Reference: ChEMBL document CHEMBL1201862, “PubChem BioAssay data set” (2004)
The source made the active and inactive calls.

Columns and labels:
[1] = target: Induced myeloid leukemia cell differentiation protein Mcl-1 (Homo sapiens, UniProt Q07820); assay: MCL1-BIM BH3 interaction inhibitors, dose response, biochemical, fluorescence polarization, BIM-BH3 peptide, 1536-well (AID 2217)
[2] = target: Bcl-2-like protein 1 (Homo sapiens, UniProt Q07817); assay: BCL-XL inhibitors, dose response, selectivity assay for MCL1 inhibitor project, biochemical, fluorescence polarization, 1536-well (AID 2218)
Bcl-2-like protein 1, sequence (Q07817 whole entry, the tested form may be a part): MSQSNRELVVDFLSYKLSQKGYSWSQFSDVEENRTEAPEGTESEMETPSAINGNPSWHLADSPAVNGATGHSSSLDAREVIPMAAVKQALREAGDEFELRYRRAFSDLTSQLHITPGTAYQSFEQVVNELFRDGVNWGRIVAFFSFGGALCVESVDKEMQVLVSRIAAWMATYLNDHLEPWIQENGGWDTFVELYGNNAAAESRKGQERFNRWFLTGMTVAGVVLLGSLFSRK

[3] = target: T1, Carboxy-terminal domain RNA polymerase II polypeptide A small phosphatase 1 (Homo sapiens, UniProt Q9GZU7); assay: inhibitors of CTDSP1, concentration-response testing, biochemical assay, absorbance-based, actives from ultra-high-throughput screening (AID 540297); assay type: functional
T1 sequence (Q9GZU7 whole entry): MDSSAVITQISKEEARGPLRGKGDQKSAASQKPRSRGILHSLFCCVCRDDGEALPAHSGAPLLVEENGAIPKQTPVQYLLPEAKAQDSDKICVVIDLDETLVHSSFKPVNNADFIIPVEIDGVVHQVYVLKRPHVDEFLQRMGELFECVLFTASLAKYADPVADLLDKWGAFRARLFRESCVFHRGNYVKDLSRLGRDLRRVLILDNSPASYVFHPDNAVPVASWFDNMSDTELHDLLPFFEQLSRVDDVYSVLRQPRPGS

[4] = target: T2, Caspase-6 (Homo sapiens, UniProt P55212); assay: human caspase-6 inhibitors, dose response, biochemical, VEID-R110 fluorescence, cherry-pick (AID 720632)
T2 sequence (P55212 whole entry): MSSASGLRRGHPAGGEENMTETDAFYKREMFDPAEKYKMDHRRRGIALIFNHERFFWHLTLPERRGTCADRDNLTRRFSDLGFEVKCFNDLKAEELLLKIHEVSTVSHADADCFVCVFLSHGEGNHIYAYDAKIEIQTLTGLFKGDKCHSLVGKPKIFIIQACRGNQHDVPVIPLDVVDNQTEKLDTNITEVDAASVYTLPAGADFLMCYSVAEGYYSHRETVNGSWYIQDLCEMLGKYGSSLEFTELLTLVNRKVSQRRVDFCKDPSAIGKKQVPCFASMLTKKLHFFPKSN

[5] = target: T3, Estrogen receptor (Homo sapiens, UniProt P03372); assay: potentiators of ERα–SRC-1 coactivator binding, dose response, biochemical, TR-FRET, ERα LBD (AID 737)
T3 sequence (P03372 whole entry): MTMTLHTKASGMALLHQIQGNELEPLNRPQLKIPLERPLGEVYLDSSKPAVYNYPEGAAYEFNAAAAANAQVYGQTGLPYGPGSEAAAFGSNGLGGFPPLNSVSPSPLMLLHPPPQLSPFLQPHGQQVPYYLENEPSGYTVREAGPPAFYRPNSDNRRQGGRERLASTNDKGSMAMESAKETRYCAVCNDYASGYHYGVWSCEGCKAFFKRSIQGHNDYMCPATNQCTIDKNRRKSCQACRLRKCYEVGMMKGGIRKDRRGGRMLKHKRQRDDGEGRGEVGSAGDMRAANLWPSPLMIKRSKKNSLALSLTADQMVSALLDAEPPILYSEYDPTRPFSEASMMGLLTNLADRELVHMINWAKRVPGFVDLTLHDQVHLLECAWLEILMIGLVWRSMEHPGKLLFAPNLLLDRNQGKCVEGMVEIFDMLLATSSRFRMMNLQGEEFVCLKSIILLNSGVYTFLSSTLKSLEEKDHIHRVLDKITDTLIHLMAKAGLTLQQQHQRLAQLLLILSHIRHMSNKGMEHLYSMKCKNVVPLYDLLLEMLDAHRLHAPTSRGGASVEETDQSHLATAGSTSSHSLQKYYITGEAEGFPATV

[6] = target: T4, Voltage-gated N-type calcium channel alpha-1B subunit/Amyloid beta A4 precursor protein-binding family A member 1 (Homo sapiens, UniProt Q00975+Q02410); assay type: protein assay
T4 sequence (Q00975 whole entry): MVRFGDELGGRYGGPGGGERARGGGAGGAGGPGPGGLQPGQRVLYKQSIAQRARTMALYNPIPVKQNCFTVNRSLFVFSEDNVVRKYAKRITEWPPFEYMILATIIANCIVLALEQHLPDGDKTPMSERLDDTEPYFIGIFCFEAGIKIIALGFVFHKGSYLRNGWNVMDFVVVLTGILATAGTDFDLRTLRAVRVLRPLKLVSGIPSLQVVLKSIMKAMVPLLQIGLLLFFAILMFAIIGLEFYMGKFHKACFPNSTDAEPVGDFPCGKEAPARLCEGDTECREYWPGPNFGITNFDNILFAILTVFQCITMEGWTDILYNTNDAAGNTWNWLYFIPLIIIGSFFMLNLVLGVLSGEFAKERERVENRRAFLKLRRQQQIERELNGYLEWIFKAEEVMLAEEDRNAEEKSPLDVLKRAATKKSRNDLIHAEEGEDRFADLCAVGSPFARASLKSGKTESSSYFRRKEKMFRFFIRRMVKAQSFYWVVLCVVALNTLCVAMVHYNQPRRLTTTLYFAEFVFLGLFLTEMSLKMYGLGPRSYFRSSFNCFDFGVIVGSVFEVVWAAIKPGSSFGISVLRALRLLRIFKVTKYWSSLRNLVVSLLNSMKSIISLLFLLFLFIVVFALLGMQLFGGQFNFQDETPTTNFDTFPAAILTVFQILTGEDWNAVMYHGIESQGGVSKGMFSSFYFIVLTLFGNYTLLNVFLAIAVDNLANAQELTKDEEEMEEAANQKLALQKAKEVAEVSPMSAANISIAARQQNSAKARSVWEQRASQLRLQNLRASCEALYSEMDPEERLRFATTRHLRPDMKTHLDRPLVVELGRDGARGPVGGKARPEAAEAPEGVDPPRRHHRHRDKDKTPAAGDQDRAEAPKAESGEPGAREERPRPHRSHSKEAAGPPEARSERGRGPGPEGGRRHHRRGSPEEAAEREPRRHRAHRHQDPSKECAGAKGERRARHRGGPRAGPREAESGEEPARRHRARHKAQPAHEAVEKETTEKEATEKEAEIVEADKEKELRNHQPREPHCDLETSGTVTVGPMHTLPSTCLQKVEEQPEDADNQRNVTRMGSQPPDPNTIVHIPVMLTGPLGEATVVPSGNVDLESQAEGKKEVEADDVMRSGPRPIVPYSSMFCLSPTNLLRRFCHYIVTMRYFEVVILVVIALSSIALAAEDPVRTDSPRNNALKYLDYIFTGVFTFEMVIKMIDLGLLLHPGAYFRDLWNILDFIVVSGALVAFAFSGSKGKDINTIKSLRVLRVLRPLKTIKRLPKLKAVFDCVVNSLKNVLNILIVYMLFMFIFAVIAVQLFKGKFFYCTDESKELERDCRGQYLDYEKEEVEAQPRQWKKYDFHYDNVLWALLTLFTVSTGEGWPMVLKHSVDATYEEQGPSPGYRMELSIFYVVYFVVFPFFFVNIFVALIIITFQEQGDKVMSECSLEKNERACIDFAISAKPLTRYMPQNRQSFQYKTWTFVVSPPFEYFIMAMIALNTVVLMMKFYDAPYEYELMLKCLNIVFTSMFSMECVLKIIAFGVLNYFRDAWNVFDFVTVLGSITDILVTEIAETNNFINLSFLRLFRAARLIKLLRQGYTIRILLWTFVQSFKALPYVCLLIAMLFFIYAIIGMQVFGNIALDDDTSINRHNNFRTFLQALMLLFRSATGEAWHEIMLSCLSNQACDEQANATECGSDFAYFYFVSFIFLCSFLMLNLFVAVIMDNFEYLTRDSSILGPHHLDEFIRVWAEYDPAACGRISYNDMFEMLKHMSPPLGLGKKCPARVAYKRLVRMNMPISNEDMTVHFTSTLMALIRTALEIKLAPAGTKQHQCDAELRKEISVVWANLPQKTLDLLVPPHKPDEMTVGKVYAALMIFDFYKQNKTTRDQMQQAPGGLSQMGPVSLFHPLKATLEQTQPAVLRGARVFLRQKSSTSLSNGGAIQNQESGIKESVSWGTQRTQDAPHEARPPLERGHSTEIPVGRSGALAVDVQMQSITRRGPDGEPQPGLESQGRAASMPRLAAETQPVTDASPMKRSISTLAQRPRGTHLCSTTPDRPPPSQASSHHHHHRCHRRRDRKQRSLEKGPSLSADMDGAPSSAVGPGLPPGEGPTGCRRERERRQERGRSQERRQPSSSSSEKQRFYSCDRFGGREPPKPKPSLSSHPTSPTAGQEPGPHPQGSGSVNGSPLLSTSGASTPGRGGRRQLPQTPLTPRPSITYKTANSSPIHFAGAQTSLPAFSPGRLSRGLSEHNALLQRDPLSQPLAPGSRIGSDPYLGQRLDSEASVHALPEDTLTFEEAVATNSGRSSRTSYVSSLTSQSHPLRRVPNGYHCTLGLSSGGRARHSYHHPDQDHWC
T4 sequence (Q02410 whole entry): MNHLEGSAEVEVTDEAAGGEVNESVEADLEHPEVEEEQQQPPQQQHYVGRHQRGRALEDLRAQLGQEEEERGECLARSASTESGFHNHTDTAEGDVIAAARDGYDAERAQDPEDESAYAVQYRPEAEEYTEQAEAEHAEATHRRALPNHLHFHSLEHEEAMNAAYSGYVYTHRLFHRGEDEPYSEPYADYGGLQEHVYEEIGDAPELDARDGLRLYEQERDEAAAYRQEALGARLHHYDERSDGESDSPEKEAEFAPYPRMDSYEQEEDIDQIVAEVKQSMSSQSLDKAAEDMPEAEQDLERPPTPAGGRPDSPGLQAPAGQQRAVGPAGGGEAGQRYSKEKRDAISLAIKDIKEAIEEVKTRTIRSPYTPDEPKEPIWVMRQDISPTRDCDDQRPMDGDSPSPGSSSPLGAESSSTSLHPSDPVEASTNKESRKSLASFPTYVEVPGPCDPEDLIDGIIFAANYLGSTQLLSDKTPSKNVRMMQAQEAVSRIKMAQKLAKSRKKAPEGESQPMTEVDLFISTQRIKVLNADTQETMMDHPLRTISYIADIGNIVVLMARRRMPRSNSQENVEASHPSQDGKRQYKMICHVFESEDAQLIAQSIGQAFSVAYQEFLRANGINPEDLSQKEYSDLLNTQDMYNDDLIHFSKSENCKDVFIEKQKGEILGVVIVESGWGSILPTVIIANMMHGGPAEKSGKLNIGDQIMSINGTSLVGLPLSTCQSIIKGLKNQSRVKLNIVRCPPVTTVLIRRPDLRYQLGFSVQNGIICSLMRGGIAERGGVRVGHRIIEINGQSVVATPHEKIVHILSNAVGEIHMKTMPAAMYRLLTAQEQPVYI

[7] = target: Large T antigen (Simian virus 40, UniProt P03070); assay type: functional, Betapolyomavirus macacae;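 note: Confirmatory-stage PubChem screen for compounds that inhibit SV40 T antigen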
[8] = target: T4, Voltage-gated N-type calcium channel alpha-1B subunit/Amyloid beta A4 precursor protein-binding family A member 1; assay type: protein assay; remark: listed apart in the source
[9] = target: T5, Mannose-6-phosphate isomerase (Homo sapiens, UniProt P34949); assay: human PMI inhibitors, high substrate, primary screen, biochemical, fluorescence intensity, high mannose 6-phosphate (AID 1220)
T5 sequence (P34949 whole entry): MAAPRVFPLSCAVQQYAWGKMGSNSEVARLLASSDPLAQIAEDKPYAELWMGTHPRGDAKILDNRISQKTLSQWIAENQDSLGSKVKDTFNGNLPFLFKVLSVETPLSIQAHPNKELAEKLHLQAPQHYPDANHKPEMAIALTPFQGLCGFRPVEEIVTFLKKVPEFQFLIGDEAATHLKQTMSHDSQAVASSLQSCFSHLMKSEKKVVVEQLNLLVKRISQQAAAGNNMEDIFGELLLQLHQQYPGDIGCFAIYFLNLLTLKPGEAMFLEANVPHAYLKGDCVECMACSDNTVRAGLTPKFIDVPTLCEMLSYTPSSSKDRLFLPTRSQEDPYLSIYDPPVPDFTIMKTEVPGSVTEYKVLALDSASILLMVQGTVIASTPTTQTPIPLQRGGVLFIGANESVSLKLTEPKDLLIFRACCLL

[10] = target: Glucose-6-phosphate 1-dehydrogenase (Homo sapiens, UniProt P11413); assay: human G6PD enzyme inhibitors, dose response, selectivity assay for P. falciparum G6PD inhibitor project, biochemical, fluorescence (AID 504792); assay type: functional
[11] = target: Phosphoethanolamine/phosphocholine phosphatase (Homo sapiens, UniProt Q8TCT1); assay: SAR assay for compounds that inhibit PHOSPHO1. [Related pubchem assays (depositor defined):AID1545, AID1565, AID1574]
Phosphoethanolamine/phosphocholine phosphatase, sequence (Q8TCT1 whole entry): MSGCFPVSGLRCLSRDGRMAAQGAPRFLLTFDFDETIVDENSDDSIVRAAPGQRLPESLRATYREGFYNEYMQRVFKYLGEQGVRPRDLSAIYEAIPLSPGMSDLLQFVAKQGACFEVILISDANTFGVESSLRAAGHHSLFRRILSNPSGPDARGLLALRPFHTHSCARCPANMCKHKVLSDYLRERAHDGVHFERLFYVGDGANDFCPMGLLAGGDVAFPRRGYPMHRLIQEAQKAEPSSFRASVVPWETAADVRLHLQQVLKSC

[12] = target: Eukaryotic translation initiation factor 4E (Mus musculus, UniProt P63073); assay: eIF4E–eIF4G protein interaction inhibitors, dose response, biochemical, TR-FRET (AID 855); assay type: functional;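 note: potency for disrupting eIF4E binding to eIF4GI seen as loss of FRET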
Eukaryotic translation initiation factor 4E, sequence (P63073 whole entry): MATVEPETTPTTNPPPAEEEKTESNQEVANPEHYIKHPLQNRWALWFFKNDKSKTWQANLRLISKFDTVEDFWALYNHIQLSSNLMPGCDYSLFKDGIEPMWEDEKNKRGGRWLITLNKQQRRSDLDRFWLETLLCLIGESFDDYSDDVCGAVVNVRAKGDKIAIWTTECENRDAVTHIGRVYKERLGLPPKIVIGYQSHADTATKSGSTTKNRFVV

[13] = target: T4, Voltage-gated N-type calcium channel alpha-1B subunit/Amyloid beta A4 precursor protein-binding family A member 1; assay: disruptors of Mint-PDZ/N-type channel peptide interaction – biochemical, HTRF, set 2, SAR follow-up (AID 434980); assay type: functional
[14] = target: T4, Voltage-gated N-type calcium channel alpha-1B subunit/Amyloid beta A4 precursor protein-binding family A member 1; assay: disruptors of Mint-PDZ/N-type channel peptide interaction – biochemical, HTRF, SAR follow-up (AID 2489); assay type: functional
[15] = target: Potassium voltage-gated channel subfamily KQT member 2 (Rattus norvegicus, UniProt O88943); assay: retigabine-insensitive KCNQ2 potentiators, concentration-response, dose response, cell-based, retigabine-insensitive compounds (AID 2654); assay type: functional
Potassium voltage-gated channel subfamily KQT member 2, sequence (O88943 whole entry): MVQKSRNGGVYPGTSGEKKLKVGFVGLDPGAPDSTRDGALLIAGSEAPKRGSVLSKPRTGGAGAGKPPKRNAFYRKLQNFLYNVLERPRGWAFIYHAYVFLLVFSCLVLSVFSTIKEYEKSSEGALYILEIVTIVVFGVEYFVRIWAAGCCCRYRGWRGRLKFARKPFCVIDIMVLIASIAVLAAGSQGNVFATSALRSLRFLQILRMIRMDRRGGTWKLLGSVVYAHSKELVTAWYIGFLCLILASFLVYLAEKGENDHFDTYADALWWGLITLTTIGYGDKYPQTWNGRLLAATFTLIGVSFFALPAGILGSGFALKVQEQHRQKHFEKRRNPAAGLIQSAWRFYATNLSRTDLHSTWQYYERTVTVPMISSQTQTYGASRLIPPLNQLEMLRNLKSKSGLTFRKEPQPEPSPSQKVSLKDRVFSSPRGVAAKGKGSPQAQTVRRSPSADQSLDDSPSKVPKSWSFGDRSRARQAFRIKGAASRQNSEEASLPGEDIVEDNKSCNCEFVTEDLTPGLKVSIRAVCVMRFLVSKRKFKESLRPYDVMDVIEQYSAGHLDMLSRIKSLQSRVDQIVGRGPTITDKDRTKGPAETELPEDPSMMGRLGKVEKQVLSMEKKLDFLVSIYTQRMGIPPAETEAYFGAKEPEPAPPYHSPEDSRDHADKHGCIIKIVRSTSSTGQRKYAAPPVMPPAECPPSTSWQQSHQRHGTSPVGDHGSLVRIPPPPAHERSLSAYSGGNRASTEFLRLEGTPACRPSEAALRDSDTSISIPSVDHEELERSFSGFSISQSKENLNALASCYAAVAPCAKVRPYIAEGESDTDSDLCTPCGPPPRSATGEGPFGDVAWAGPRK

[16] = cells
[17] = target: T6, Tyrosine-protein phosphatase non-receptor type 7 (Homo sapiens, UniProt P35236); assay: Dose Response confirmation of compounds that inhibit HePTP. [Related pubchem assays (depositor defined):AID1059, AID1661, AID2085]; assay type: functional
T6 sequence (P35236 whole entry): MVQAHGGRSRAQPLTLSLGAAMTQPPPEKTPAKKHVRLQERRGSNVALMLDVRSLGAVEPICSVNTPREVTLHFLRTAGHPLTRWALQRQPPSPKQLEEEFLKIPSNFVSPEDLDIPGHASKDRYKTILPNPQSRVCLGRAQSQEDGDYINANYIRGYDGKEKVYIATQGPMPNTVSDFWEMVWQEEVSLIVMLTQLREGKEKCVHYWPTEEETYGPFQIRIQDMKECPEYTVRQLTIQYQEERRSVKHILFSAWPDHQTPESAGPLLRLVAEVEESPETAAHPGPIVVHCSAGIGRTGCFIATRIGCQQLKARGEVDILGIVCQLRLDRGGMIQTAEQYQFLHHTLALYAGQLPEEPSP

[18] = target: Dual specificity protein phosphatase 3 (Homo sapiens, UniProt P51452); assay: Dose Response Confirmation of compounds that inhibit VHR1 in Fluorescent Assay. [Related pubchem assays (depositor defined):AID1661, AID1878]; assay type: functional
Dual specificity protein phosphatase 3, sequence (P51452 whole entry): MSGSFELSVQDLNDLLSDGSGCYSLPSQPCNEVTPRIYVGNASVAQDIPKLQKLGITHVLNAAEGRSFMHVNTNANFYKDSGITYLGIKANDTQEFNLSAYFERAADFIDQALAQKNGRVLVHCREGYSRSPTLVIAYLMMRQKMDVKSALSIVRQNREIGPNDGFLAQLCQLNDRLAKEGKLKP

[19] = target: T7, Low molecular weight phosphotyrosine protein phosphatase (Homo sapiens, UniProt P24666); assay type: functional; conditions: read-out: IC50_Mean;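 note: Dose-response confirmation assay measuring inhibition of LMPTP enzyme activity by fluorescence intensity read-out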
T7 sequence (P24666 whole entry): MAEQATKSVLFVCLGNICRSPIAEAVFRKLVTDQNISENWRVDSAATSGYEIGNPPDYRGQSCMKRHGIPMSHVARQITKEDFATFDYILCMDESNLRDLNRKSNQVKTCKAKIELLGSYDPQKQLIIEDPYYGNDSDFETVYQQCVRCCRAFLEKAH

[20] = inhibitors of Bluetongue virus cytopathic effect, confirmation, arbovirus, BSR cells (AID 1250); assay type: functional;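 note: protection from viral cytopathic effect measured as cell viability by ATP luminescence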

## COc1cccc(C(=O)OCC(=O)Nc2sc3c(c2C(N)=O)CCC3)c1O
[1]
  IC50: 50.2 µM (not active)
[2]
  IC50: > 109 µM (not active)
[3]
  IC50: 3.73 µM (active)
[4]
  AC50: 17.7 µM (active)

## COc1ccc(-c2nnc(SCC(=O)c3cc(C)n(Cc4cccs4)c3C)o2)cc1
[5]
  EC50: 7.51 µM (active)

## CNc1nc(-c2ccccc2)[n+](-c2ccc(C)cc2)s1
[6]
  IC50: 1.4 µM (active)
[7]
  IC50: 39 µM (active)
[8]
  IC50: 2.48 µM (active)
[9]
  IC50: 6.89 µM (active)
[10]
  IC50: 10.5 µM (active)
[11]
  IC50: 4.47 µM (inactive)
[12]
  IC50: 1.49 µM (active)
[13]
  IC50: 0.278 µM (active)
[14]
  IC50: < 0.11 µM (active)

## COc1ccc(NC(=O)Nc2cccnc2)cc1
[15]
  EC50: 203 µM (active)

## O=C1c2ccccc2C(Nc2cccnc2)N1Cc1ccc2c(c1)OCO2 (stereo not given)
[16]
  IC50: 21.6 µM (active)

## O=C(Nc1ccncc1)c1cc(-c2ccccn2)nc2ccc(Br)cc12
[17]
  IC50: 1.52 µM (active)
[18]
  IC50: 9.44 µM (active)
[19]
  IC50: 26.3 µM (inactive)

## COc1ccc2oc3cc(C)[n+]([O-])c(-c4ccc(C)cc4)c3c2c1
[20]
  IC50: 23 µM (active)
